Calls of active or inactive are those of the source. The rule behind the calls is not given here.
Tests used:
[1] = molecular target: Aurora kinase B (Homo sapiens, UniProt Q96GD4); experiment: Inhibition of aurora kinase B in human HCT116 cells assessed as inhibition of histone H3 phosphorylation by immunofluorescence analysis; format: cell-based, HCT-116
[2] = molecular target: T1, Aurora kinase A (Mus musculus, UniProt P97477); experiment: Inhibition of recombinant mouse aurora kinase A expressed in insect Sf9 cells using biotin-GLRRASLG as substrate in presence of [gamma-33P]ATP
T1 sequence (P97477 whole entry): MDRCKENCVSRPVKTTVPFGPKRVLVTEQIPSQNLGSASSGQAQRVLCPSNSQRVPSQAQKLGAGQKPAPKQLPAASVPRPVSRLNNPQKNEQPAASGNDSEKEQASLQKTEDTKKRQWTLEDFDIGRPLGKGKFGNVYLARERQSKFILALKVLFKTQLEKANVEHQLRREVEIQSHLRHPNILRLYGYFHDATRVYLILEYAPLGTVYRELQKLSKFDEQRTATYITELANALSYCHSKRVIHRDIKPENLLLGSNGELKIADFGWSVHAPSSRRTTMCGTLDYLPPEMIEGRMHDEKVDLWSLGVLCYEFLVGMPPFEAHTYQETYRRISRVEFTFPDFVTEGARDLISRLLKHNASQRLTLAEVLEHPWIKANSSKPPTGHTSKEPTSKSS

[3] = molecular target: T2, Aurora kinase A (Homo sapiens, UniProt O14965); experiment: Inhibition of aurora kinase A autophosphorylation at T288 in human HCT116 cells by immunofluorescence analysis; format: cell-based, HCT-116
T2 sequence (O14965 whole entry): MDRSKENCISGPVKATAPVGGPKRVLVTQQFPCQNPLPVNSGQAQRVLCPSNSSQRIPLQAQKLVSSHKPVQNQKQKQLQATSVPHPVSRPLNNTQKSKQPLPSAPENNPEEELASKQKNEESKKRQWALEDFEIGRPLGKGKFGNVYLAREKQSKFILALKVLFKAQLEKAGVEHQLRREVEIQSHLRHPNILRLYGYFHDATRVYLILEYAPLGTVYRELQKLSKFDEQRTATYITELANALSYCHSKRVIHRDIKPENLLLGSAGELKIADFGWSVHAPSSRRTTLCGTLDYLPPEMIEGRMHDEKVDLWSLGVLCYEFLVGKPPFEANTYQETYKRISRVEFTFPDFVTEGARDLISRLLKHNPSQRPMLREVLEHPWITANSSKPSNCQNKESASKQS

[4] = test system: HCT-116; experiment: Cytotoxicity against human HCT116 cells assessed as inhibition of cell proliferation by BrdU incorporation assay; format: functional
[5] = AUC (0 to 8 hrs) in nude mouse brain at 30 mg/kg, po; format: ADME, organism-based; set-up: dose 30 mg/kg, time < 8 hr, route oral
[6] = Cmax in nude mouse brain at 30 mg/kg, po; format: ADME, organism-based; set-up: dose 30 mg/kg, route oral
[7] = test system: Caco-2; experiment: Permeability across basolateral to apical side in human Caco2 cells; format: ADME, cell-based
[8] = test system: Caco-2; experiment: Permeability across apical to basolateral side in human Caco2 cells; format: ADME, cell-based
[9] = Aqueous solubility of the compound; format: physicochemical; settings: buffer
[10] = in vivo; settings: nude, mouse, brain/plasma, po, 30 mg/kg
[11] = test system: Rattus norvegicus; experiment: Toxicity in Sprague-Dawley rat assessed as GABAA related effect at maximum tolerated dose, po administered for 7 days; format: organism-based; settings: in vivo, 168 h
[12] = test system: Rattus norvegicus; experiment: In vivo binding affinity to GABAA receptor in po dosed Sprague-Dawley rat; format: ADME, organism-based
[13] = test system: Rattus norvegicus; experiment: AUC (0 to 24 hrs) in po dosed Sprague-Dawley rat; format: ADME, organism-based; set-up: time < 24 hr, route oral; settings: in vivo
[14] = Cmax in po dosed Sprague-Dawley rat; format: ADME, organism-based; set-up: route oral; settings: in vivo
[15] = molecular target: T3, Gamma-aminobutyric acid receptor subunit alpha-1 (Homo sapiens, UniProt P14867); experiment: Binding affinity to GABAA alpha-1 benzodiazepine binding site (unknown origin)
T3 sequence (P14867 whole entry): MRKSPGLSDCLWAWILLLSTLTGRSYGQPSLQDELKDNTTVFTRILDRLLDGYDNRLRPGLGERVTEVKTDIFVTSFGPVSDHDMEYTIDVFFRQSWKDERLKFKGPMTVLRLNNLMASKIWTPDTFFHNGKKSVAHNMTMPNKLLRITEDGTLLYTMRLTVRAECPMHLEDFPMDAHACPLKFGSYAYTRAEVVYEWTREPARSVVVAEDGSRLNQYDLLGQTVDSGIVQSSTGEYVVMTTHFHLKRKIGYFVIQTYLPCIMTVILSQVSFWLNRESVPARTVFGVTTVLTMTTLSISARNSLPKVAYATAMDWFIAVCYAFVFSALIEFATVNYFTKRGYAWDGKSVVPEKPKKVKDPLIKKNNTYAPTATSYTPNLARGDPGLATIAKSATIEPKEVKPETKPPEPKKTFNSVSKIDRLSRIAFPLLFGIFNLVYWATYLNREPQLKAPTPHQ

[16] = Inhibition of human CYP450; format: ADME
[17] = test system: Rattus norvegicus; experiment: Toxicity in Sprague-Dawley rat assessed as myelosuppression at maximum tolerated dose, po administered for 7 days; format: organism-based; settings: in vivo, 168 h
[18] = Substrate activity at P-gp (unknown origin) transfected in MDCK cells; format: ADME, cell-based; settings: human
[19] = Terminal half life in Sprague-Dawley rat at 1 mg/kg, iv; format: ADME, organism-based; settings: in vivo, read-out: beta t1/2 (converted)
[20] = test system: Rattus norvegicus; experiment: Toxicity in Sprague-Dawley rat assessed as mucositis at maximum tolerated dose, po administered for 7 days; format: organism-based; settings: in vivo, 168 h
[21] = molecular target: T1, Aurora kinase A; experiment: Competitive inhibition of recombinant mouse aurora kinase A expressed in insect Sf9 cells in presence of ATP
[22] = Protein binding in plasma (unknown origin); format: ADME, cell-free; settings: read-out: PPB
[23] = test system: Rattus norvegicus; experiment: Toxicity in Sprague-Dawley rat assessed as GABAA related effect administered as iv infusion measured within 5 mins; format: organism-based; settings: in vivo
[24] = Volume of distribution at steady state in Sprague-Dawley rat at 1 mg/kg, iv; format: ADME, organism-based; settings: in vivo, read-out: Vdss
[25] = test system: Rattus norvegicus; experiment: (§1) Oral bioavailability in Sprague-Dawley rat at 10 mg/kg; format: ADME, organism-based; settings: in vivo
[26] = Clearance in Sprague-Dawley rat at 1 mg/kg, iv; format: ADME, organism-based; settings: in vivo
[27] = Inhibition of CYP450 (unknown origin) up to 100 uM; format: ADME; settings: human
[28] = test system: Rattus norvegicus; experiment: Toxicity in Sprague-Dawley rat assessed as reversible effect on central nervous system at maximum tolerated dose, po administered for 7 days; format: organism-based; settings: in vivo, 168 h
[29] = as §1; format: ADME, organism-based; settings: Sprague-Dawley, in vivo
[30] = test system: Calu-6; experiment: Antitumor activity against human Calu6 cells xenografted in mouse assessed as tumor growth inhibition at 20 mg/kg, po bid administered for 21 days; format: functional, organism-based
[31] = test system: Calu-6; experiment: Antitumor activity against human Calu6 cells xenografted in mouse assessed as tumor growth inhibition at 30 mg/kg, po bid administered for 21 days; format: functional, organism-based
[32] = test system: Plasma; experiment: AUC (0 to 8 hrs) in nude mouse plasma at 30 mg/kg, po; format: ADME, organism-based; set-up: dose 30 mg/kg, time < 8 hr, route oral; settings: in vivo

Sequence of Aurora kinase B (Q96GD4 whole entry): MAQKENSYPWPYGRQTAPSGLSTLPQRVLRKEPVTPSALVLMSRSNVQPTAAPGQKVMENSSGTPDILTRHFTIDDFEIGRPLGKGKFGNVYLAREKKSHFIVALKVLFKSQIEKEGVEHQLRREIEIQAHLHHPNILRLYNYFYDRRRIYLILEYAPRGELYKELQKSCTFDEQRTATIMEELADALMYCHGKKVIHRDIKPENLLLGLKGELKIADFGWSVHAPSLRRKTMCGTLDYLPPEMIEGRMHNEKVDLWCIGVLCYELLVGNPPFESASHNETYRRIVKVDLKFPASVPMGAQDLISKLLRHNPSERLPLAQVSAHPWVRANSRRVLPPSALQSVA

With `Nc1ncc2c(n1)-c1ccc(Cl)cc1C(c1ccccc1F)=NC2` the IC50 [1] was greater than 10 µM, the IC50 [2] was 1700 nM and the IC50 [3] was 6 µM. For the same compound, the GI50 [4] was 11000 nM.
`O=C([O-])c1ccc(Nc2ncc3c(n2)-c2ccc(Cl)cc2C(c2c(F)cccc2F)=NC3)cc1.[Na+]` showed an AUC(0-t) at 8 h [5] of 12500 ng·h/mL and a Cmax [6] of 2600 ng/mL.
For `O=C([O-])c1ccc(Nc2ncc3c(n2)-c2ccc(Cl)cc2C(c2ccccc2F)=NC3)cc1.[Na+]`, the permeability [7] was 640 nm/s, the permeability [8] was 580 nm/s and the solubility [9] was greater than 10 mg/mL.
`COc1cc(Nc2ncc3c(n2)-c2ccc(Cl)cc2C(c2c(F)cccc2OC)=NC3)ccc1C(=O)[O-].[Na+]` gave a Kp [10] of 0.03, an AUC(0-t) at 8 h [5] of 2000 ng·h/mL and a Cmax [6] of 420 ng/mL.
`O=C(O)c1ccc(Nc2ncc3c(n2)-c2ccc(Cl)cc2C(c2ccccc2F)=NC3)cc1` gave an IC50 [1] greater than 10 µM, an IC50 [2] of 33 nM and a GI50 [4] of 950 nM.
In the case of `COc1cccc(F)c1C1=NCc2cnc(Nc3ccc(C(=O)O)cc3)nc2-c2ccc(Cl)cc21`, the IC50 [1] is reported as 2.5 µM, the IC50 [2] is reported as 10 nM and the Activity [11] is reported as “Non-toxic”. For the same compound, the Activity [12] was “Non-toxic”, the GI50 [4] was 130 nM and the AUC [13] was 244 µg·h/mL. It also gave a Cmax [14] of 46000 ng/mL and an IC50 [15] of 150 nM.
In the case of `COc1cc(Nc2ncc3c(n2)-c2ccc(Cl)cc2C(c2c(F)cccc2OC)=NC3)ccc1C(=O)O` [ALISERTIB], the IC50 [16] is reported as greater than 100 µM, the Activity [17] is reported as “Toxic” and the Activity [18] is reported as “Not Active”. The half-life [19] was 420 min, the IC50 [2] was 1 nM and the Activity [11] was “Non-toxic”. The Activity [20] was “Toxic”, the permeability [7] was 470 nm/s and the Activity [12] was “Non-toxic”. It also gave a Ki [21] of 0.3 nM, a fraction unbound [22] of less than 0.03 and a permeability [8] of 620 nm/s. The GI50 [4] was 30 nM, the AUC [13] was 201 µg·h/mL and the Activity [23] was “Toxic”. It also gave a Cmax [14] of 48000 ng/mL, a Vd [24] of 2.21 L/kg and an IC50 [15] of 490 nM. For the same compound, the F [25] was 124%.
In the case of `O=C(O)c1ccc(Nc2ncc3c(n2)-c2ccc(Cl)cc2C(c2c(F)cccc2F)=NC3)cc1` [MLN-8054], the clearance [26] is reported as 20.3 mL/min/kg, the Activity [17] is reported as “Toxic” and the Activity [18] is reported as “Not Active”. The half-life [19] was 252 min, the IC50 [2] was 31 nM and the “inhibition (INH)” value [27] was “Not Active”. For the same compound, the Activity [20] was “Toxic”, the permeability [7] was 790 nm/s and the Ki [21] was 7 nM. For the same compound, the fraction unbound [22] was less than 0.02, the Activity [28] was “Toxic” and the permeability [8] was 540 nm/s. For the same compound, the AUC [13] was 13.8 µg·h/mL, the Cmax [14] was 5200 ng/mL and the Vd [24] was 1.48 L/kg. For the same compound, the IC50 [15] was 330 nM and the bioavailability [29] was 100%.
With `COc1cc(Nc2ncc3c(n2)-c2ccc(Cl)cc2C(c2c(F)cccc2OC)=NC3)ccc1C(=O)O` the TGI [30] was “Active”.
With `O=C(O)c1ccc(Nc2ncc3c(n2)-c2ccc(Cl)cc2C(c2c(F)cccc2F)=NC3)cc1` the TGI [31] was “Active”.
`COc1cccc(F)c1C1=NCc2cnc(Nc3ccc(C(=O)[O-])cc3)nc2-c2ccc(Cl)cc21.[Na+]` showed an AUC [32] of 54.3 µg·h/mL, a Kp [10] of 0.06 and an AUC(0-t) at 8 h [5] of 3500 ng·h/mL. The Cmax [6] was 930 ng/mL.

Reference: ChEMBL document CHEMBL3585345 (ACS Med Chem Lett, 2015)
